From ChEMBL document CHEMBL1150389, “Synthesis and evaluation of heteroaromatic 6,7-diaryl-2,3,8,8a-tetrahydroindolizin-5(1H)-ones for cytotoxicity against the HCT-116 colon cancer cell line” (Bioorg Med Chem Lett, 2008) come the findings set out here.

In this assay the test system is HCT-116. The assay can be described thus: Cytotoxicity against human HCT116 cells. The class given is functional, cell-based.
Regarding `CSc1ccc(C2=C(c3ccoc3)C(=O)N3CCCC3C2)cc1` (stereo not drawn), 1.1 µM corresponded to half-maximal inhibition (IC50).

The compound `COc1ccc(C2=C(c3ccoc3)C(=O)N3CCCC3C2)cc1` (stereo not drawn) displayed an IC50 of 3 µM.

In the case of `CSc1ccc(C2=C(c3ccncc3)C(=O)N3CCCC3C2)cc1` (stereo not drawn), half-maximal inhibition (IC50) required 6 µM.

`CSc1ccc(C2=C(c3ccsc3)C(=O)N3CCCC3C2)cc1` (stereo not drawn): the IC50 worked out at 0.6 µM.

`COc1ccc(C2=C(c3ccncc3)C(=O)N3CCCC3C2)cc1` (stereo not drawn) yielded an IC50 of 19 µM.

`CSc1ccc(C2=C(c3ccccc3)C(=O)N3CCCC3C2)cc1` (stereo not drawn): the IC50 was determined as 1 µM.

In the case of `CSc1ccc(C2=C(c3cccs3)C(=O)N3CCCC3C2)cc1` (stereo not drawn), the midpoint of inhibition, the IC50, lay at 0.27 µM.

`COc1ccc(C2=C(c3ccco3)C(=O)N3CCCC3C2)cc1` (stereo not drawn) yielded an IC50 of 6 µM.

`COc1ccc(C2=C(c3cccnc3)C(=O)N3CCCC3C2)cc1` (stereo not drawn): the IC50 stood at 79 µM.

`COc1ccc(C2=C(c3ccccn3)C(=O)N3CCCC3C2)cc1` (stereo not drawn): the IC50 stood at 104 µM.

Take `CSc1ccc(C2=C(c3ccco3)C(=O)N3CCCC3C2)cc1` (stereo not drawn): the IC50 amounted to 3 µM.

Take `COc1ccc(C2=C(c3cccs3)C(=O)N3CCCC3C2)cc1` (stereo not drawn): half-maximal inhibition (IC50) required 5 µM.

Take `COc1ccc(C2=C(c3ccsc3)C(=O)N3CCCC3C2)cc1` (stereo not drawn): the midpoint of inhibition, the IC50, lay at 1.5 µM.

The term IC50 denotes the point on the concentration scale where inhibition reaches its midpoint.
